Type in all cases: cell-based
In assay [1] the target is T1, NOD2 (Homo sapiens, UniProt Q9HC29).
T1 construct: host or cells: HEK-Blue NOD2 cells (HEK293-derived)
In words: HEK-Blue NOD2 cell line reporter assay (NF-κB-inducible SEAP). The settings on record: HEK-Blue NOD2 cells, 18 h, mean ± SEM. A general note: A reporter such as luciferase makes a cellular process visible.

Assay [2] deals with T2, NOD1 (Homo sapiens, UniProt Q9Y239).
T2 construct: host or cells: HEK-Blue NOD1 cells (HEK293-derived)
T2 sequence (Q9Y239 1-953): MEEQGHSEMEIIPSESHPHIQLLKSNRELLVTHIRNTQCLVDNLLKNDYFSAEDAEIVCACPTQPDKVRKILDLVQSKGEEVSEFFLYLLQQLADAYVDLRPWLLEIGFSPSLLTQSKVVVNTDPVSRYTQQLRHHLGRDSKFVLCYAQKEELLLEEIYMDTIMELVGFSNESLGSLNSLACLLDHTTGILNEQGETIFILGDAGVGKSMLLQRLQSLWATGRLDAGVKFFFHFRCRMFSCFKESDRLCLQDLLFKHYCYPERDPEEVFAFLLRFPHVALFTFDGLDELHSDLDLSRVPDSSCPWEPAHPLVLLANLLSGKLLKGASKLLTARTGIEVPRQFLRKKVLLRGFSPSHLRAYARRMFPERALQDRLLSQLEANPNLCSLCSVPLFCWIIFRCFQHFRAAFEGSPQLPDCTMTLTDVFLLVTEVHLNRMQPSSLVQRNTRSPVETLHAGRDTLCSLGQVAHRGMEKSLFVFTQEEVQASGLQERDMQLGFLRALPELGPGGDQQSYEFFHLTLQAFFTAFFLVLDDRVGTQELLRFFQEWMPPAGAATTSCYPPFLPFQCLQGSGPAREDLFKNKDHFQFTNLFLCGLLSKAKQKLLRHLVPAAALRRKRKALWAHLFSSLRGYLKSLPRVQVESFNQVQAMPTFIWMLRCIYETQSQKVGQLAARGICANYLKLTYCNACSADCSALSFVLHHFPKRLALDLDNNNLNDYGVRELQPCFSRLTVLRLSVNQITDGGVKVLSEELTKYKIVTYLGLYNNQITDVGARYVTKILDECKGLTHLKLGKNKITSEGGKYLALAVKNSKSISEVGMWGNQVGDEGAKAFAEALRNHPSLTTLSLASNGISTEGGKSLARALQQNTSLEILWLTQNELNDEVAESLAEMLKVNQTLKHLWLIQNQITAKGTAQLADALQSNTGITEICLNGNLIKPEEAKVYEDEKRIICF
In words: HEK-Blue NOD1 cell line reporter assay (selectivity). The settings on record: HEK-Blue NOD1 cells, 2 μM, 18 h. As to the method: As NOD2 and NOD1 agonists share certain structural characteristics, we wanted to determine whether these compounds selectively target NOD2. Selectivity against NOD1 of MDP and all of these synthesized desmuramylpeptides was analyzed in an analogous assay with the HEK-Blue NOD1 cell line.
(§1) HEK-Blue NOD2 and NOD1 cell line reporter assays are derived from HEK293 cells by cotransfection of the hNOD2 or hNOD1 genes, respectively, and an NF-κB-inducible secreted embryonic alkaline phosphatase (SEAP) reporter gene. Following activation of NOD2 or NOD1, the resulting NF-κB induces production of SEAP, the levels of which can be quantified colorimetrically. […] After 18 h of incubation (37 °C, 5% CO2), secreted embryonic alkaline phosphatase (SEAP) activity was determined spectrophotometrically as absorbance at 630 nm (BioTek Synergy microplate reader; Winooski, VT, U.S.A.). EC50 values were calculated using Prism software (version 9; GraphPad Software, CA, U.S.A.). For determination of specificity, HEK-Blue NOD2 cells (2.5 × 10^5 cells/mL) were first pretreated for 1 h with a 10 μM NOD2 antagonist, before the addition of the compounds (2 μM), with incubation for 18 h. SEAP activity in the supernatants was determined as above. The experiments were run in duplicate and repeated as at least two independent biological replicates.
Supporting figure S2. NOD1 agonistic activities of desmuramylpeptides. […]

Assay [3] addresses T1, NOD2. In words: Specificity: NOD2 antagonist pretreatment of HEK-Blue NOD2 cells. Particulars: 10 μM NOD2 antagonist 1 h, then 2 μM compound 18 h. On the procedure:
Furthermore, the specificities were determined by pretreating HEK-Blue NOD2 cells with a previously reported NOD2 antagonist[77] prior to stimulation with MDP (2 μM) or the desmuramylpeptides (2 μM). The resulting NF-κB-induced SEAP activities were compared to those of the controls without the NOD2 antagonist pretreatment.
as §1
Supporting figure S2. […]

In general, EC50 refers to the concentration that produces a half-maximal response.

T1 sequence (Q9HC29 whole entry): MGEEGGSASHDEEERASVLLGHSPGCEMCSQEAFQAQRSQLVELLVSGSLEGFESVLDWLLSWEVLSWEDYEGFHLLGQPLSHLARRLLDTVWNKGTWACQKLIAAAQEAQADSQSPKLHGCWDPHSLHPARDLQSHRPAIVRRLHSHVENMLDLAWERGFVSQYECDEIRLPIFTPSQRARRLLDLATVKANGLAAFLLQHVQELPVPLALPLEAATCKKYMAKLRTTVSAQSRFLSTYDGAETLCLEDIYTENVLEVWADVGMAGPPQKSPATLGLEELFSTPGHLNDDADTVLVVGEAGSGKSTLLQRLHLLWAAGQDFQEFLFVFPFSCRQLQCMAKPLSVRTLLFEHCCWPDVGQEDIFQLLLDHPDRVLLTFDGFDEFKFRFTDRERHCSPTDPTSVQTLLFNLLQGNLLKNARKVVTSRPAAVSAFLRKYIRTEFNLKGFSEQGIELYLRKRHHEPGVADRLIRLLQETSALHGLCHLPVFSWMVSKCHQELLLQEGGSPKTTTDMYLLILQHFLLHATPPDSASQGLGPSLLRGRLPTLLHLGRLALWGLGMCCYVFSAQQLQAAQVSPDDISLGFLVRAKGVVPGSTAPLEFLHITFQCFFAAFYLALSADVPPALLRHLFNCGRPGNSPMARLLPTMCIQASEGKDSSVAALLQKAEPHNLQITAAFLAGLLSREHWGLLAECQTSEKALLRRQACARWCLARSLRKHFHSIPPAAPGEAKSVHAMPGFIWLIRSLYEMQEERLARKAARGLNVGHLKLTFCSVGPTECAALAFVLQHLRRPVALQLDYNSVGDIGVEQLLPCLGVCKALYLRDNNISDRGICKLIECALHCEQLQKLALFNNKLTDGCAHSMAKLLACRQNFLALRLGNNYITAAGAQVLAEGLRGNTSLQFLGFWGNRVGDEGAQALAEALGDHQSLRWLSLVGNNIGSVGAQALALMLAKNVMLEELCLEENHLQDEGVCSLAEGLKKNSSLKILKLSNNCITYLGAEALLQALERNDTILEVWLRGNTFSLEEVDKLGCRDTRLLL

As for `CCOC(=O)CC[C@@H](NC(=O)[C@@H](NC(=O)CNC(=O)/C=C/c1ccc(O)c(O)c1)C(C)C)C(=O)OCC` [Compound 21, Diethyl ((E)-3-(3,4-Dihydroxyphenyl)acryloyl)glycyl-L-valyl-D-glutamate], the “NOD2 activity at 2 μM (fold increase)” value in assay [1] (2 μM, NF-κB transcriptional (SEAP) activity relative to 0.1% DMSO) was 2.28 ± 0.07 fold increase. In addition, the EC50 in assay [1] (7 or 8 concentrations 1 nM to 20 μM) is 1730 ± 101 nM. The NOD1 agonistic activity entry in assay [2] is recorded as “showed no activity in the NOD1 assay”. Besides, the “NF-κB transcriptional activity after NOD2 antagonist pretreatment” value in assay [3] is reported as “reduced NOD2 activation”.

(Values after article PMC8279416, “Structural Fine-Tuning of Desmuramylpeptide NOD2 Agonists Defines Their In Vivo Adjuvant Activity” (Journal of Medicinal Chemistry, 2021).)
